Test results taken from the OPERA property sets (Mansouri et al. 2018).

Conditions: for log10 BCF / log10 biotransformation half-life (days): fish

CC1(C)[C@H](C(=O)OCc2cccc(Oc3ccccc3)c2)[C@@H]1C=C(Cl)Cl (single isomer, unassigned)
log10 BCF: 2.65
log10 biotransformation half-life (days): 0.37

C=C1CC(=O)O1
boiling point: 126 °C
log10 vapour pressure (mmHg): 1.03
melting point: -6.5 °C
ready biodegradability: readily biodegradable

CC=Cc1ccc(OC)c(OC)c1
boiling point: 270 °C
melting point: 18 °C

CCC(C)(Cl)CCl (stereo not given)
boiling point: 134 °C

C1CCC(CCCCCC2CCCCC2)CC1
boiling point: 325 °C
melting point: -13.6 °C

Cc1cc(C)cc(CO)c1
boiling point: 220 °C

CC1=CC(=O)CC(C)(C)[C@@]1(O)/C=C/C(C)=C\C(=O)O
melting point: 160 °C

CC(C)[C@]12CC(=O)[C@H](C)[C@H]1C2
boiling point: 203 °C
log10 vapour pressure (mmHg): -0.385

COc1c(OC)c(OC(C)=O)c2ccccc2c1OC(C)=O
melting point: 138 °C

CC=C(C)CCC
log10 vapour pressure (mmHg): 1.7

O=C(O)c1cccc2cccc(Cl)c12
melting point: 172 °C

C=Cc1cccc(Cl)c1
log10 vapour pressure (mmHg): -0.0083
ready biodegradability: not readily biodegradable

O=S(=O)(c1ccccc1)c1ccc(Cl)cc1
melting point: 94 °C

C=CCc1cc(C)ccc1O
boiling point: 237 °C

CO[C@@H]1[C@H](OC(=O)/C=C/C=C/C=C/C=C/C(=O)O)CC[C@]2(CO2)[C@H]1[C@@]1(C)O[C@@H]1CC=C(C)C
melting point: 194 °C

CNC(=O)c1ccccc1
boiling point: 291 °C
log10 Koc (L/kg): 1.68
melting point: 82 °C

CCCCCCCCCCCCCCCCCC1CCCCC1
boiling point: 397 °C
melting point: 38 °C

CC(=O)Nc1ccc(N)cc1
boiling point: 267 °C
melting point: 166 °C
ready biodegradability: readily biodegradable

c1cc2cccc3c4cccc5cccc(c(c1)c23)c54
log10 biodegradation half-life (days): 2.95
log10 vapour pressure (mmHg): -8.28
melting point: 274 °C
ready biodegradability: not readily biodegradable
log10 biotransformation half-life (days): -0.06

CCOC(=O)C(=O)CC(C)=O
boiling point: 214 °C
melting point: 18 °C

O=C(O)C=CC=Cc1ccc2c(c1)OCO2
melting point: 215 °C

CCCCCCCCCCC=CCCCCCCCC(=O)O
melting point: 23 °C

Clc1ccc(-c2c(Cl)cccc2Cl)c(Cl)c1
log10 Henry constant (atm·m³/mol): -3.85
log10 biotransformation half-life (days): 2.47

CC[C@H]1OC(=O)[C@H](C)[C@@H](O[C@H]2C[C@@](C)(OC)[C@@H](O)[C@H](C)O2)[C@H](C)[C@@H](O[C@@H]2O[C@H](C)C[C@H](N(C)C)[C@H]2O)[C@](C)(O)C[C@@H](C)CN(C)[C@H](C)[C@@H](O)[C@]1(C)O
melting point: 114 °C

Oc1ccc2cccc(O)c2c1
melting point: 180 °C

Cc1cc(S(=O)(=O)c2ccccc2)ccc1NS(=O)(=O)C(F)(F)F
log10 Koc (L/kg): 3.08
melting point: 143 °C

CC(=O)Nc1ccc(S(=O)(=O)Cl)cc1
melting point: 149 °C

OCCCc1ccccc1
boiling point: 235 °C
log10 Henry constant (atm·m³/mol): -6.69
log10 vapour pressure (mmHg): -1.7

CCCCCCC(=O)CCC
boiling point: 206 °C
melting point: -9 °C

CCN(CC)C(=O)[C@@H]1C=C2c3cccc4[nH]cc(c34)C[C@H]2N(C)C1
melting point: 82.5 °C

CC(=O)CC(=O)Nc1ccccc1C
melting point: 105 °C
ready biodegradability: readily biodegradable

Oc1nc(O)c2nccnc2n1
melting point: 348 °C

Nc1cccc2nsnc12
melting point: 68 °C

O=C1C=C(Cl)C(=O)C(Cl)=C1
melting point: 123 °C

CCC(C)c1ccc(O)c([N+](=O)[O-])c1 (stereo not given)
log10 Henry constant (atm·m³/mol): -4.02
log10 vapour pressure (mmHg): -2.34

COc1cc2c(cc1OC)[C@]1(O)C(=O)c3ccc4c(c3O[C@@H]1CO2)C=CC(C)(C)O4
melting point: 198 °C

CC/C(=C(/CC)c1ccc(OC)cc1)c1ccc(OC)cc1
melting point: 124 °C

C=C(C)C(C)(C)C
boiling point: 77.9 °C
log10 vapour pressure (mmHg): 2.05
melting point: -110 °C

COc1cc(Cl)c(Cl)cc1Cl
boiling point: 254 °C
melting point: 77.5 °C
log10 BCF: 2.81

CC1=C(/C=C/C(C)=C/C=C/C(C)=C/C=O)C(C)(C)CC=C1
melting point: 77.5 °C

CCOP(=S)(OCC)SCSCC
log10 Koc (L/kg): 2.7
log10 vapour pressure (mmHg): -3.2

Nc1ccc([N+](=O)[O-])cc1
boiling point: 332 °C
log10 Henry constant (atm·m³/mol): -8.9
log10 Koc (L/kg): 1.88
log10 vapour pressure (mmHg): -5.49
melting point: 146 °C
ready biodegradability: not readily biodegradable
log10 BCF: 0.6
log10 biotransformation half-life (days): -0.51

Cc1cc2c(cc1O)[C@@]1(C)CCCC(C)(C)[C@@H]1CC2=O
melting point: 250 °C

CN[C@H](C)[C@@H](O)c1ccc(O)cc1 (racemic)
melting point: 153 °C

COc1ccc(O)c(C(C)(C)C)c1
ready biodegradability: not readily biodegradable

C#CC(O)(CC)CC
boiling point: 138 °C

O=[N+]([O-])c1cc([N+](=O)[O-])c(Cl)c(C(F)(F)F)c1
melting point: 63 °C

CC(C)NC(=N)NC(=N)Nc1ccc(Cl)cc1
melting point: 129 °C

O=[N+]([O-])c1cccc2ncccc12
melting point: 74 °C

COC(C)CCO (stereo not given)
boiling point: 157 °C
ready biodegradability: readily biodegradable

O=CNC(Nc1ccc(Cl)c(Cl)c1)C(Cl)(Cl)Cl (stereo not given)
melting point: 135 °C

CO[C@H]1O[C@H](CO)[C@@H](O)[C@H](O)[C@H]1O
melting point: 168 °C

O=C1CCCCC1C1CCCCC1 (stereo not given)
boiling point: 264 °C
melting point: -32 °C

CCCCCO
boiling point: 138 °C
log10 Henry constant (atm·m³/mol): -4.89
log10 Koa: 4.69
log10 Koc (L/kg): 0.7
log10 vapour pressure (mmHg): 0.342
melting point: -78.9 °C
ready biodegradability: readily biodegradable

O=C(Nc1ccccc1)NC1CCCCC1
log10 Koc (L/kg): 2.07

CC1CC(C)NC(C)C1 (stereo not given)
boiling point: 145 °C

ClC1(Cl)CCCCC1
boiling point: 171 °C
melting point: -47 °C

FC(F)(F)C(F)(Cl)C(F)(F)Cl (stereo not given)
boiling point: 34.1 °C

CC(C)CS(=O)(=O)CC(C)C
boiling point: 265 °C
melting point: 17 °C

CCCCCCCCCCCCCCCCCCCCCCCCCCCCCCO
melting point: 88 °C

[N-]=[N+]=Nc1ccccc1
melting point: -27.5 °C

O=C(O)c1ccc(F)c(F)c1
melting point: 123 °C

COc1cc(C(=O)NCc2ccc(OCCN(C)C)cc2)cc(OC)c1OC
melting point: 189 °C

CCOc1ccccc1C=O
boiling point: 248 °C
melting point: 21 °C

COc1cc([N+](=O)[O-])c2ncccc2c1
melting point: 159 °C

C=Cc1cccc(C)c1
boiling point: 164 °C
log10 vapour pressure (mmHg): 0.231
melting point: -86.3 °C
log10 BCF: 1.55

O=C1CCCCCCCN1
melting point: 78 °C

CC1=C(/C=C/C(C)=C/C=C/C(C)=C/C=O)C(C)(C)CCC1
melting point: 63 °C

COc1ccc(C(=O)c2coc(S(N)(=O)=O)c2)cc1
melting point: 181 °C

FC(F)F
boiling point: -82.1 °C
log10 Henry constant (atm·m³/mol): -1.02
log10 vapour pressure (mmHg): 4.55
melting point: -155 °C

CCOC(=O)C(=O)c1ccccc1
boiling point: 256 °C

CN1C(=O)c2ccc([N+](=O)[O-])cc2C1=O
boiling point: 361 °C

CCCCCCCCCCc1ccccc1
boiling point: 298 °C
log10 vapour pressure (mmHg): -2.89
melting point: -14.4 °C
log10 biotransformation half-life (days): 0.63

CC1(C)C2CCC1(C)C(Cl)C2 (stereo not given)
boiling point: 208 °C
melting point: 132 °C

Cc1ccc(CC=O)cc1
boiling point: 222 °C
melting point: 40 °C

Clc1ccc(Br)cc1Cl
boiling point: 237 °C
melting point: 25 °C

CCC#CC(C)C
boiling point: 95.2 °C
melting point: -117 °C

FC(F)OCC(F)(F)F
boiling point: 29.3 °C
log10 vapour pressure (mmHg): 2.81

CCCCCCCCOC(=O)CCCCC
boiling point: 275 °C
melting point: -28 °C

FC(Cl)=C(F)Cl
boiling point: 21.1 °C
log10 vapour pressure (mmHg): 2.95
melting point: -130 °C

c1ccc(CN(Cc2ccccc2)c2ccccc2)cc1
melting point: 69 °C

Oc1ccccc1-c1nc2ccccc2o1
boiling point: 338 °C
melting point: 124 °C

CCCCOCc1ccco1
boiling point: 190 °C

CC(=O)C(N=Nc1ccc(-c2ccc(N=NC(C(C)=O)C(=O)Nc3ccccc3C)c(Cl)c2)cc1Cl)C(=O)Nc1ccccc1C (stereo not given)
ready biodegradability: not readily biodegradable

c1ccc2c(c1)-c1cccc3c1c-2cc1ccccc13
log10 Henry constant (atm·m³/mol): -6.18
log10 biodegradation half-life (days): 2.45
log10 vapour pressure (mmHg): -6.3
melting point: 168 °C

CC(C)CCCCCCCCCCCCCCC(=O)O
ready biodegradability: readily biodegradable

CN(C)c1nc(N(C)C)nc(N(C)C)n1
melting point: 173 °C

NCc1ccccn1
boiling point: 203 °C

CCCCCCCCCCCC(=O)OC(=O)CCCCCCCCCCC
melting point: 41.8 °C

C=CCCCCCCC(=O)O
melting point: 5 °C

CCC(=O)OCCc1ccccc1
boiling point: 238 °C

Cc1cc(C)nc(C)c1
boiling point: 171 °C
log10 vapour pressure (mmHg): 0.298
melting point: -46 °C

O=C1CCCC(=O)O1
boiling point: 287 °C
log10 vapour pressure (mmHg): -2.52
melting point: 56.3 °C

CC(C)(CCl)C(=O)O
melting point: 41.5 °C

O=c1cc(-c2ccccc2)oc2cc(O)cc(O)c12
melting point: 286 °C

O=C(O)Cc1ccccc1F
melting point: 63 °C

O=Cc1ccc([N+](=O)[O-])cc1
melting point: 107 °C

Cc1cc(C)c(C(=O)O)c(C)c1
melting point: 154 °C

COC1CCC=CO1 (stereo not given)
boiling point: 118 °C
log10 vapour pressure (mmHg): 1.04
melting point: 16 °C

C1=CCc2ccccc2C1
boiling point: 212 °C
melting point: 25 °C

NC(=O)c1ccc(Br)cc1
melting point: 192 °C

OCCC(F)(F)F
boiling point: 99.5 °C

Cc1ccc(O)c(N)c1
melting point: 136 °C

C=C(C)C1CC=C(C)CC1 (stereo not given)
boiling point: 176 °C
log10 vapour pressure (mmHg): 0.215
melting point: -86.4 °C
ready biodegradability: readily biodegradable

N#Cc1ccccc1OCC(O)CNCCNC(=O)Cc1ccc(O)cc1 (stereo not given)
melting point: 119 °C

O=C1C=CC2(CCC23C=CC(=O)O3)O1 (stereo not given)
melting point: 158 °C

COC1=CC(=O)C=C(OC)C1=O
melting point: 256 °C

CC1CC(CC2CCC(N)C(C)C2)CCC1N (stereo not given)
ready biodegradability: not readily biodegradable

COCCN
boiling point: 95 °C

Cc1ccccc1CN
boiling point: 206 °C
melting point: -30 °C
log10 BCF: 0.66

Cc1ccc2[nH]nnc2c1
melting point: 81 °C

CCOC(=O)Cn1c(=O)sc2cccc(Cl)c21
log10 vapour pressure (mmHg): -5.56
melting point: 79.2 °C

O=[N+]([O-])c1ccc2[nH]nnc2c1
melting point: 217 °C

N#CCCCC#N
boiling point: 286 °C
log10 vapour pressure (mmHg): -2.08
melting point: -29 °C

CCCCCCC(=O)CCCCCC
boiling point: 261 °C
log10 vapour pressure (mmHg): -2.18
melting point: 33 °C

C1CN(CCN2CCOCC2)CCO1
boiling point: 285 °C
melting point: 75 °C

NC(=O)c1cccc(Br)c1
melting point: 155 °C

CCc1cccnc1
boiling point: 165 °C
log10 Henry constant (atm·m³/mol): -4.98
log10 vapour pressure (mmHg): 0.403
melting point: -76.9 °C

CCCC(=O)OCC
boiling point: 122 °C
log10 Koa: 3.56
log10 vapour pressure (mmHg): 1.11
melting point: -98 °C

O=C(O)c1cccs1
melting point: 130 °C

CC(C)CCOC(=O)C(C)C
boiling point: 168 °C

CC1OC(=O)C=C2C3=C(OC(C)(C)CC3)C(=O)C(O)=C21 (stereo not given)
melting point: 230 °C
